Where a name gives a salt, the structure may show the parent alone. Read-outs that look alike come from different tables or passages of the source.

Type in all cases: biochemical
The target in assay [1] is T1, Nterm-phos (Homo sapiens, UniProt P34913).
T1 construct: use of a truncated enzyme from crude extract versus purified full-length human sEH; made in house; host or cells: baculovirus expression system (insect cells)
T1 sequence (P34913 1-555): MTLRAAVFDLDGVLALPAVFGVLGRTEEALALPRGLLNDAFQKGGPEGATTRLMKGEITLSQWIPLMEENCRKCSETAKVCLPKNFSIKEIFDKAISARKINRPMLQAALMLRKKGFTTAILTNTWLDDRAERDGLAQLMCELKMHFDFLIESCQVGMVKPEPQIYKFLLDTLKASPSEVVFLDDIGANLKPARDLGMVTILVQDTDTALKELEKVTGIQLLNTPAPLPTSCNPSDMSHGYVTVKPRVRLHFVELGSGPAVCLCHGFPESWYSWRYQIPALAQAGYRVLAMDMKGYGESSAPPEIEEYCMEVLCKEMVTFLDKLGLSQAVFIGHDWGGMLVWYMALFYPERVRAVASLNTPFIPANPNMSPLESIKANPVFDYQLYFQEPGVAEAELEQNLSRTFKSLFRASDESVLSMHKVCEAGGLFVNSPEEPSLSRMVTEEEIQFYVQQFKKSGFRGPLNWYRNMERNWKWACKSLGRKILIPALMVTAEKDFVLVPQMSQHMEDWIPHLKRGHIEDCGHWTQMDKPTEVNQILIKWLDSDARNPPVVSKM
Kind of assay: Specific activity of Nterm-phos for lipid-phosphates (phosphoric acid formed). The settings on record: substrate hydrolysis, 30° C., average ± SD of three experiments. As to the method:
Nterm-Phos activity was measured in Bis-Tris HCl buffer (25 mM PH 7.0) containing 0.1 mg/mL of Fraction V BSA and 1 mM of MgCl2 (buffer A) at 30° C. […] APHP activity was measured as described using 7 as substrate (Newman et al., Proc. Natl. Acad. Sci. USA. 100, 1558-1563 (2003)). Compounds 34-37 were incubated separately with the enzyme for a given time, and then the reaction was stopped by the addition of 100 μL of methanol. The reaction products for compounds 34-37 were extracted with 500 μL of ethyl acetate. The quantification of the alcohol products was performed by LC/MS analysis of 2 μL of the organic phase. The Cterm-EH activity was measured as described previously in buffer A, using either racemic 4-nitrophenyl-trans-2,3-epoxy-3-phenylpropyl carbonate (Dietze et al., Anal. Biochem. 216, 176-187 (1994)) or racemic [^3H]-trans-1,3-diphenylpropene oxide as substrate (Borhan et al., Anal. Biochem. 231, 188-200 (1995)). This latter substrate was also used to measure the activity of the cress sEH and the truncated human sEH.

The next assay has as its target T2, Human Cterm-EH (Homo sapiens, UniProt P34913).
T2 construct: use of a truncated enzyme from crude extract versus purified full-length human sEH; made in house; host or cells: baculovirus expression system (insect cells)
T2 sequence (P34913 1-555): T1 sequence (P34913 1-555)
Kind of assay: Inhibition of Cterm-EH activity by lipid-phosphates, fluorescent assay.

Assay [2] concerns the target T3, Human sEH Cterm-EH activity (Homo sapiens, UniProt P34913).
T3 construct: use of a truncated enzyme from crude extract versus purified full-length human sEH; made in house; host or cells: baculovirus expression system (insect cells)
T3 sequence (P34913 1-555): T1 sequence (P34913 1-555)
Kind of assay: Cterm-EH inhibition IC50 with 4-nitrophenyl-trans-2,3-epoxy-3-phenylpropyl carbonate.

Assay [3] has as its target T1, Nterm-phos. Kind of assay: Kinetic parameters of Nterm-phos for poly-isoprenyl phosphates (LC/MS of alcohol products). As to the method:
Nterm-Phos activity was measured in Bis-Tris HCl buffer (25 mM PH 7.0) containing 0.1 mg/mL of Fraction V BSA and 1 mM of MgCl2 (buffer A) at 30° C. […] APHP activity was measured as described using 7 as substrate (Newman et al., Proc. Natl. Acad. Sci. […] The quantification of the alcohol products was performed by LC/MS analysis of 2 μL of the organic phase. […] This latter substrate was also used to measure the activity of the cress sEH and the truncated human sEH. […] The Shimadzu […] HPLC system (Shimadzu Scientific Instruments, Columbia, Md.) was set at a flow rate of 0.2 mL/min, and a 2.1×30 mm XTerraTM MS C18 3.5 μm column (Waters, Milford, Mass.) held at 20° C. The samples were kept at 10° C. in the auto-sampler. […] A solvent system consisting of water with 0.1% formic acid (solvent A) and acetonitrile with 0.1% formic acid (solvent B) was used and set at a flow rate of 0.25 mL/min. […] Pyrophosphate was analyzed by direct injection of 5 μL sample into the mass spectrometer at 0.05 mL/min flow rate of 50% A and 50% B. Analytes were detected by electrospray ionization-tandem quadrupole mass spectrometry in multiple reaction monitoring mode (MRM) using a Quattro Premier tandem quadrupole mass spectrometer (Micromass, Manchester, UK). Nitrogen gas flow rates were fixed with a cone gas flow of 25 L/h and a desolvation gas flow of 700 L/h. Electrospray ionization of geraniol, farnesol and geranylgeraniol was performed in positive mode with a capillary voltage fixed at 3.20 kV and a cone voltage fixed at 25 V using a source temperature of 125° C. and a desolvation temperature of 350° C. Capillary voltage and cone voltage were optimized in an infusion experiment. […] However, intense [M+H-18]^+ ions were produced in the source due to water loss. Therefore, these ions were selected as precursor ions to set MRM acquisition mode. Monitored transitions were 137>95 m/z for geraniol, 205>121 m/z for farnesol, and 273>149 m/z for geranylgeraniol at collision voltage of 15 V for all analytes. Argon was used as collision gas (2.2×10^-3 Torr). […] Chromatogram integration and analyte quantification was performed with QuantLynx module of the MassLynx 4.0 software (Micromass, Manchester, UK).

Setting [4] is: substrate 50 μM, 5 min preincubation, 30° C., read-out: IC50.

As to `CC(C)=CCC/C(C)=C/CC/C(C)=C/C1C(COP(=O)(O)OP(=O)(O)O)C1(C)CC/C=C(\C)CCC=C(C)C` (stereo in doubt) [Pre-squalene diphosphate (PSDP), Pre-squalene diphosphate], the “Spec. Act.” value at Nterm-phos [1] came out at 30 ± 15 nmol/min/mg. Moreover, the “Inhibition (%)” value on Human Cterm-EH ([LP] 14 μM) is 86%.
For `CC(C)=CCC/C(C)=C/CC/C(C)=C/C1C(COP(=O)(O)O)C1(C)CC/C=C(\C)CCC=C(C)C` (stereo in doubt) [Pre-squalene monophosphate (PSMP), Pre-squalene monophosphate], at Nterm-phos [1], the “Spec. Act.” value was found to be 54 ± 22 nmol/min/mg. In addition, the “Inhibition (%)” value on Human Cterm-EH ([LP] 14 μM) was 30%.
For `CCCCCCCC/C=C\CCCCCCCC(=O)OCC(COP(=O)(O)O)OC(=O)CCCCCCC/C=C\CCCCCCCC` (stereo not drawn) [1,2-Dioleoyl-glycerol-3-phosphate (DOGP), 1,2-Dioleoyl-glycerol-3-phosphate], the “Spec. Act.” value at Nterm-phos [1] was less than 0.3 nmol/min/mg.
Consider `CCCCCCCCCCCCCCCCC(C(=O)O)S(=O)(=O)O` (stereo not drawn) [Compound 10, α-Sulfostearic acid], for which the IC50 in assay [2] (setting [4]) is greater than 100 µM.
Take `CCCCCCCCCCCCS(=O)(=O)O` [Compound 12, Sodium dodecyl-sulfonate]: the 50% inhibitory concentration (IC50) in assay [2] (setting [4]) is greater than 100 µM.
In the case of `O=[N+]([O-])c1ccc(OS(=O)(=O)O)cc1` [Compound 13, 4-Nitrophenyl sulfate], in assay [2] (setting [4]), the IC50 is greater than 100 µM.
Turning to `C[C@H](CCC(=O)NCCS(=O)(=O)O)[C@H]1CC[C@H]2[C@@H]3CC[C@@H]4C[C@H](OS(=O)(=O)O)CC[C@]4(C)[C@H]3CC[C@]12C` [Compound 14, Taurolithocholic acid 3-sulfate], in assay [2] (read-out: IC50), the concentration for half-maximal inhibition (IC50) came out at 90 ± 5 µM.
Compound `C[C@H](CCC(=O)NCCS(=O)(=O)O)[C@H]1CC[C@H]2[C@@H]3[C@H](O)C[C@@H]4C[C@H](O)CC[C@]4(C)[C@H]3C[C@H](O)[C@]12C` [Compound 15, Taurocholic acid] showed an IC50 in assay [2] greater than 100 µM.
Consider `C[C@]12CC[C@@H]3c4ccc(OS(=O)(=O)O)cc4CC[C@H]3[C@@H]1CCC2=O` [Compound 16, Estrone-3-sulfate], for which, in assay [2] (setting [4]), the IC50 was greater than 100 µM.
On to `O=C[C@H](O)[C@@H](O)[C@@H](O)[C@H](O)COS(=O)(=O)O` [Compound 17, D-Galactose-6-sulfate], for which the IC50 in assay [2] (setting [4]) was greater than 100 µM.
For `O=C1O[C@H]([C@@H](O)CO)C(O)=C1OS(=O)(=O)O` [Compound 18, L-Ascorbic acid 2-sulfate dipotassium salt], the IC50 in assay [2] (setting [4]) was greater than 100 µM.
Same read-out and setting: as for `CC(=O)N[C@H]1C(O)O[C@H](CO)[C@H](OS(=O)(=O)O)[C@@H]1O` (stereo partly drawn) [Compound 19, N-Acetyl-D-galactosamine 4-sulfate], the figure is greater than 100 µM; as for `CC(C)OP(=O)(CP(=O)(OC(C)C)OC(C)C)OC(C)C` [Compound 20, Tetra-isopropyl-methylene diphosphonate], greater than 100 µM.
In the case of `CCOP(=O)(OCC)C(=O)c1ccccc1` [Compound 22, Diethyl-benzoylphosphonate], the IC50 in assay [2] was greater than 100 µM.
`CCOP(=O)(C/C=C/c1ccccc1)OCC` [Compound 24, Diethyl trans-cinnamyl-phosphonate] registered an IC50 in assay [2] greater than 100 µM.
In the case of `CCOP(=O)(Cc1ccc(C)cc1)OCC` [Compound 25, Diethyl 4-methylbenzyl-phosphonate], the IC50 in assay [2] was greater than 100 µM.
Turning to `CCCCCCCCOP(=O)(OCCCCCCCC)c1ccccc1` [Compound 27, Dioctyl-phenyl-phosphonate], in assay [2] (setting [4]), the IC50 was 92 ± 3 µM.
Turning to `O=P(O)(OCc1ccccc1)OCc1ccccc1` [Compound 28, Di-benzyl-phosphate], in assay [2] (setting [4]), the IC50 is greater than 100 µM.
The compound `CCCCCC(=O)CP(=O)(OC)OC` [Compound 29, Dimethyl (2-oxoheptyl)-phosphonate] came in with an IC50 in assay [2] greater than 100 µM.
The compound `CCOP(=O)(OCC)C(O)C(F)(F)F` (stereo not drawn) [Compound 30, Diethyl (2,2,2-trifluoro-1-hydroxyethyl)-phosphonate] returned a concentration for half-maximal inhibition (IC50) in assay [2] greater than 100 µM.
On to `CCOP(=O)(CSCC)OCC` [Compound 31, Diethyl (ethyltiomethyl)phosphonate], for which the half-maximal inhibitory concentration (IC50) in assay [2] was greater than 100 µM.
As for `CCCCCCCCCCCCP(=O)(O)O` [Compound 33, Dodecyl phosphonic acid], the IC50 in assay [2] (setting [4]) was greater than 100 µM.
In the case of `CC(C)=CCC/C(C)=C/COP(=O)(O)OP(=O)(O)O` [Compound 34, Geranyl-pyrophosphate], the Michaelis-Menten constant (Km) at Nterm-phos [3] (linear curve, above the highest concentration tested) is greater than 5 µM.
For the compound `CC(C)=CCC/C(C)=C/CC/C(C)=C/COP(=O)(O)OP(=O)(O)O` [Compound 35, Farnesyl-pyrophosphate], on Nterm-phos [3] (compound as substrate), the Hill coefficient was determined as 1.0 ± 0.1, the Km came to 10.1 ± 1.1 µM and the VM came out at 12.5 ± 1.0 nmol/min/mg. In addition, the “Spec. Act.” value at Nterm-phos [1] stood at 32 ± 7 nmol/min/mg. Also, on Human Cterm-EH ([LP] 10 μM), the “Inhibition (%)” value was found to be 60%.
For the compound `CC(C)=CCC/C(C)=C/CC/C(C)=C/CC/C(C)=C/COP(=O)(O)OP(=O)(O)O` [Compound 36, Geranylgeranyl-pyrophosphate], on Nterm-phos [3] (compound as substrate), the Hill coefficient is given as 1.0 ± 0.2, the Km was 3.4 ± 1.6 µM and the VM amounted to 4.7 ± 1.1 nmol/min/mg. The “Inhibition (%)” value at Human Cterm-EH ([LP] 10 μM) is 45%.
As for `CC(C)=CCC/C(C)=C\CC/C(C)=C\COP(=O)(O)O` [Compound 37, Farnesyl monophosphate], at Nterm-phos [3], the “hydrolyzed faster than the corresponding pyrophosphate derivative” value is recorded as “approximately 50 fold”. Further, at Nterm-phos [3] (compound as substrate), the Hill coefficient amounted to 1.0 ± 0.1, the Michaelis-Menten constant (Km) stood at 5.7 ± 0.4 µM and the VM amounted to 303 ± 19 nmol/min/mg.
As to `CCCCCCCCCCCCCC=CC(O)C(COP(=O)(O)O)NC(=O)CCCCCCC` (stereo not drawn) [N-Octyl-ceramide-1-phosphate (OCP), N-Octyl-ceramide-1-phosphate], on Nterm-phos [1], the “Spec. Act.” value was less than 0.3 nmol/min/mg. For the same compound, the “Inhibition (%)” value on Human Cterm-EH ([LP] 50 μM) is given as 31%.
As for `CCCCCCCCCCCCC/C=C/[C@@H](O)[C@@H](N)COP(=O)(O)O` [Sphingosine-1-phosphate (S1P), Sphingosine-1-phosphate], at Nterm-phos [1], the “Spec. Act.” value was found to be 1.1 ± 0.1 nmol/min/mg. Besides, testing at 40 µM on Human Cterm-EH ([LP] 40 μM) gave an inhibition of 2%.

These data come from patent publication US20090215894A1, “INHIBITION OF PHOSPHATASE ACTIVITY OF SOLUBLE EPOXIDE HYDROLASE AMINO TERMINUS AND USES THEREOF” (REGENTS OF THE UNIVERSITY OF CALIFORNIA, priority 2005, published 2009).
